Experimental findings from patent US20200131176A1, “SELECTIVE INHIBITORS OF CLINICALLY IMPORTANT MUTANTS OF THE EGFR TYROSINE KINASE” (CS Pharmatech Limited, priority 2017, published 2020) are described below.

pIC50: −log10 of the molar value. “And” between values parts separate entries of the source, which are not always exact repeats. Equal entries are not always repeated. Where two headings read alike, the source gives them in different places.

For orientation: pIC50 means the negative decadic logarithm of the IC50, by convention in mol/L. Broadly, the AUC is concentration integrated over time. Broadly, the Cmax is the highest concentration seen after dosing. The term clearance denotes the volume of plasma or blood freed of the substance per unit of time. Higher therefore signals a high capacity for elimination.

The target of series [1] is T1, L858R/T790M double mutant EGFR in H1975 cells (Homo sapiens, UniProt P00533, L858R/T790M).
T1 construct: endogenous in cells; host or cells: H1975 cells
Kind of series: L858R/T790M double mutant H1975 autophosphorylation inhibition assay (ELISA). It is filed as cell-based. The note with it: cellular EGFR autophosphorylation, H1975, 2 h treatment; read-out: DM (H1975) IC50. On the technique in general: An ELISA detects its analyte on a solid surface through an enzyme-linked reagent.

A short description of series [2]: Mouse in vivo PK study. To be noted: mouse, plasma, male CD1 mice, 10 mg/kg PO.
In series [3] the target is hERG channel (HEK 293 cell line stably expressing hERG channel) (Homo sapiens, UniProt Q12809). Kind of series: cell-based.
The target in series [4] is Wild type EGFR in A431 cells (Homo sapiens, UniProt P00533). To be noted: WT (A431) IC50 nM, cellular EGFR autophosphorylation, A431, 2 h treatment then EGF stimulation 10 min.
The test system of another series is A431 cells. Kind of series: A431 inhibition assay (cell proliferation, CellTiter-Glo, 72 h). Format: cell-based, human. Background: Cellular ATP, detected with luciferase, serves as a proxy for viable cell number.
In series [5] the target is T2, Exon 19 deletion EGFR (activating single mutant) in PC-9 cells (Homo sapiens, UniProt P00533, DEL746-750).
T2 construct: cellular phosphorylation of endogenous p-EGFR; host or cells: PC9 (PC-9) human lung cell line
The series is described as follows: Exon 19 deletion EGFR PC-9 cellular autophosphorylation assay (p-EGFR ELISA). Format: cell-based. The note with it: PC9, 2 h treatment, read-out: SM (PC9) IC50.
Procedure: The human lung cell line PC9 (Exon 19 deletion EGFR) were obtained from the American type Culture Collection. […] Cells were grown in a humidified incubator at 37° C. with 5% CO2, Assays to measure cellular phosphorylation of endogenous p-EGFR in cell Iysates were carried out according to the protocol described in the R&D Systems DuoSet IC Human Phospho-EGF R ELISA (R&D Systems catalogue number # DYCI095). 40 μL of cells were seeded (10000 cells/well) in growth medium in Coming black, clear-bottomed 384-well plates and incubated at 37° C. with 5% CO2 overnight. […] Plates were incubated for a further 2 h, then following aspiration of medium, 40 μL× lysis buffer is added to each well. Greiner black high bind 384 well plates were coated with capture antibody and then blocked with 3% BSA. Following removal of block, 15 μL of lysate are transferred to the Greiner black high bind 384 well plates and incubated for 2 hours. Following aspiration and washing of the plates with PBS, 20 μL of detection antibody were added and incubated for 2 hours. […] The data obtained with each compound are exported into a suitable software package (such as Origin) to perform curve fitting analysis.

The subject of a further series is H1975 cells. The series is described as follows: H1975 inhibition assay (cell proliferation, CellTiter-Glo, 72 h). It is filed as cell-based, human. To be noted: cellular proliferation, double mutant EGFR.
Another series concerns PC-9 cells. Kind of series: PC-9 growth inhibition assay (cell proliferation, CellTiter-Glo, 72 h). It is filed as cell-based, human. To be noted: cellular proliferation, PC9 cells, single mutant EGFR.
A short description of series [6]: Mouse in vivo PK study. The note with it: male CD1 mice, 1 mg/kg IV. As to the method: To determine the drug concentration in plasma of the compounds of the present disclosure following intravenous and oral administration in male CD 1 Mice, pharmacokinetic profile and PK parameters were obtained.
Test animals: healthy male CD1 mice (body weight 20-30 g, 18 mice, free access to food and water), provided by Sibeifu laboratory. […]
Samples collection: the healthy animals were used, weighed the bodyweight and marked at tail and cage card prior to dosing. Blood samples (0.03 mL per time point) were collected from dorsal metatarsal vein at 0.083, 0.25, 0.5, 1, 2, 4, 8, 24 h post dose for IV group and at 0.25, 0.5, 1, 2, 4, 8, 24 h post dose for PO group, the terminal time point was collected from heart (˜0.3 mL). The blood samples were put into the tube with heparin-Na coated and then put on the cold box, centrifuged at 4° C. 4000 g, 5 minutes immediately after collecting all samples per time point to get plasma. The plasma samples were stored in a freezer at −75±15° C. prior to analysis.
The drug concentration was determined by LC/MS/MS method, and the PK parameters were observed as follows.

A further series concerns the target T3, IGF-1R (Homo sapiens, UniProt P08069).
T3 construct: purchased CARNA BIOSCIENCE 08-141
Kind of series: IGF-1R inhibition assay (Caliper mobility shift). Format: biochemical. To be noted: enzyme assay.

A further series deals with T4, INSR (Homo sapiens, UniProt P06213).
T4 construct: purchased CARNA BIOSCIENCE 08-142
Kind of series: INSR inhibition assay (Caliper mobility shift). It is filed as biochemical. The note with it: enzyme assay.

The test system of series [7] is H1975 NSCLC cells xenograft (EGFR L858R/T790M double mutant). Kind of series: EGFR L858R/T790M double-mutant H1975 xenograft model. The note with it: 5 mg/kg, day 10 after dosing. It is filed as in vivo, nu/nu mice.
Procedure: Appropriately transformed cells, either from ATCC cell lines, known to carry the oncogene of interest, or from deliberate transfections, are suspended in appropriate media, and 5×10^6 or 1×10^7 cells are injected into the flank of nu/nu mice. Alternatively trochar placement of fragments of in vivo passaged tumors, usually about 1 mm^3 can be used to initiate the tumors. When tumors have reached an appropriate size for the experiment, usually in the 100-300 mg range, animals are randomized into matched groups of 6-10 mice, and tumor size and given vehicle or test article by perioral gavage once or twice daily. Tumor volumes are determined using calipers. The percentage increase in the volume of a xenograft tumor on day n versus day 0 (the day when dosing of the test compound began) is calculated as (tumor volume on day n−tumor volume on day 0/tumor volume on day 0)×100. The mean percentage of tumor growth inhibition in each drug-treated group relative to the vehicle-treated group is calculated as (1−mean percent increase of tumor volume in the drug-treated group/mean percent increase of the tumor volume in the vehicle-treated group)×100. Statistical significance is evaluated using a one-tailed t test.
Tumor size was measured on day 10 after dosing.
[8] abbreviates: Homo sapiens, A-431, 72 h, cellular proliferation, wild type EGFR, read-out: A431 IC50 (nM) WT.
Setting [9] is: Homo sapiens, NCI-H1975, 72 h, read-out: NCI-H1975 IC50 (nM) DM.
The mark [10] stands for this setting: Homo sapiens, PC-9, 72 h, read-out: PC9 IC50 (nM) SM.
The mark [11] stands for this setting: cellular proliferation, wild type EGFR, read-out: A431 IC50 (nM) WT.
Where [12] appears, read: NCI-H1975 cells, read-out: NCI-H1975 IC50 (nM) DM.

T3 sequence (P08069 959-1367 limits assumed): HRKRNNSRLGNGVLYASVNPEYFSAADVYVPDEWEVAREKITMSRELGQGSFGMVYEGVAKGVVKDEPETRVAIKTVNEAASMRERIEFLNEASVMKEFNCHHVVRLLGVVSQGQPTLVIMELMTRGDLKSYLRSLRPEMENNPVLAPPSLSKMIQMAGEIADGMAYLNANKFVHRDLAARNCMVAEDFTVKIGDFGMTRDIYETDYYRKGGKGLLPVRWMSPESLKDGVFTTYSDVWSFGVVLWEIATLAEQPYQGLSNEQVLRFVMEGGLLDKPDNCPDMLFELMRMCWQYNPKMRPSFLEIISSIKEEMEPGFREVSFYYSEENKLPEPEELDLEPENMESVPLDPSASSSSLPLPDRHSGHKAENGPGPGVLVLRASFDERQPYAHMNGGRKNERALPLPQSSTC
Chain of hERG channel (HEK 293 cell line stably expressing hERG channel) (Q12809 whole entry): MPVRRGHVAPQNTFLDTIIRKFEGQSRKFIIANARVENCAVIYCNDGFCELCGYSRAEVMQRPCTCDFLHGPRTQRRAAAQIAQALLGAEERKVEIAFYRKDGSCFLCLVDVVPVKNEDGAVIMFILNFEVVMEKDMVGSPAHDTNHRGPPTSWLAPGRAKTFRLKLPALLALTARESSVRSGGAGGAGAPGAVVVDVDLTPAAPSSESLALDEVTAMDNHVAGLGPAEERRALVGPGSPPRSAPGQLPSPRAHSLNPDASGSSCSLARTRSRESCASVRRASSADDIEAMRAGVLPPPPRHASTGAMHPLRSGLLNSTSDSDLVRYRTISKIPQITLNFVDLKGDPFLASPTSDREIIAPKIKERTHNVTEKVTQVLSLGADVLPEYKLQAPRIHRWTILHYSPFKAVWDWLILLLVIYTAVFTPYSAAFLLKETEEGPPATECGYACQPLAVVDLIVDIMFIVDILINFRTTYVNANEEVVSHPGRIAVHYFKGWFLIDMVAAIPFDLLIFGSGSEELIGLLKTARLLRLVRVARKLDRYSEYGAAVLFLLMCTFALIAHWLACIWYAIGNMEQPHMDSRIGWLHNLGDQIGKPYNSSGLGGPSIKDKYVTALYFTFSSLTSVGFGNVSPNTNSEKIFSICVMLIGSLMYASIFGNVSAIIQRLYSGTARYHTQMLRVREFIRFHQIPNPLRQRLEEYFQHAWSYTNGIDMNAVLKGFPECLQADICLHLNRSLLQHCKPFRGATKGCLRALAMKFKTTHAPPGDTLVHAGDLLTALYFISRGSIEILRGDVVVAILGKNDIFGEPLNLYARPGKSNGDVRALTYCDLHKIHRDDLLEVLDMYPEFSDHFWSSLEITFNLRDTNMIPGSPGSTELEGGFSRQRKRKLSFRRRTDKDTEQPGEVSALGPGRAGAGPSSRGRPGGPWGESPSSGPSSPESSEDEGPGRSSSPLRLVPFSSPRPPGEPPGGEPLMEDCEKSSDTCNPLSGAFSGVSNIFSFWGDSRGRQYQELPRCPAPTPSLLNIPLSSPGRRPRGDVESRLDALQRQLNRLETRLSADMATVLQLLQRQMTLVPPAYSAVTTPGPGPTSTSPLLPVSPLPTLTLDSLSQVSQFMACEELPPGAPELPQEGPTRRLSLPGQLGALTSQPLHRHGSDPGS
T1 sequence (P00533 25-1210 T790M/L858R): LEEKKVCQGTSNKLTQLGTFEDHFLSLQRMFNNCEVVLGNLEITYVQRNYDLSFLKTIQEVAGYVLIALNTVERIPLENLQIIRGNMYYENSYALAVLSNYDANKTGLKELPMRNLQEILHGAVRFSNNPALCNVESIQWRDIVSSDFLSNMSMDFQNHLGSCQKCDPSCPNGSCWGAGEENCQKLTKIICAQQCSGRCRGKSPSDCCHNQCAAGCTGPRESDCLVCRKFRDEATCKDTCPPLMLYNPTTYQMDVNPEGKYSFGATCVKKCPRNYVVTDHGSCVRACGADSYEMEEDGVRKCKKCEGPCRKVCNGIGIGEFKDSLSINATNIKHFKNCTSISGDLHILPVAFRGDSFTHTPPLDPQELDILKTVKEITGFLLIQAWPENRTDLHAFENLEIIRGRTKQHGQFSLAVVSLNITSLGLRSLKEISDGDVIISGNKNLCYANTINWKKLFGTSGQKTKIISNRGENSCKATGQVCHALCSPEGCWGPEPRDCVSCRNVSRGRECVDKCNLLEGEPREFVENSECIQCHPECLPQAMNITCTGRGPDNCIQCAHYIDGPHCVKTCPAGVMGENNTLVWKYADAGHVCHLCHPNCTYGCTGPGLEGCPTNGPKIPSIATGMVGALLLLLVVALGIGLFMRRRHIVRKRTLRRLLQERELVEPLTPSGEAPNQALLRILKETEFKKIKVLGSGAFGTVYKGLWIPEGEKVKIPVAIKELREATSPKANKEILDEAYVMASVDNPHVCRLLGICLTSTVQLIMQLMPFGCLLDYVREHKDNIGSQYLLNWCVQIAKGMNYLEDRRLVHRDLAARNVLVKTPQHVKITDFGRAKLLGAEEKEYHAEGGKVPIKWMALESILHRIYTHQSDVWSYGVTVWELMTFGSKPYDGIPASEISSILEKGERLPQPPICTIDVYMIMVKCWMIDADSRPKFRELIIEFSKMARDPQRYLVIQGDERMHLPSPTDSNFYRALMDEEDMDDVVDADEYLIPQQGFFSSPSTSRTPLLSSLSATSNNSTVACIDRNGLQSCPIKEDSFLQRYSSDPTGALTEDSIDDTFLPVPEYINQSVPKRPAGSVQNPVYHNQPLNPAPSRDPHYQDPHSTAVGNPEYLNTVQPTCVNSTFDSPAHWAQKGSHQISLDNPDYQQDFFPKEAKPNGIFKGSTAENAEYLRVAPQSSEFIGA
T2 sequence (P00533 with tags, fused parts or gaps DEL746-750): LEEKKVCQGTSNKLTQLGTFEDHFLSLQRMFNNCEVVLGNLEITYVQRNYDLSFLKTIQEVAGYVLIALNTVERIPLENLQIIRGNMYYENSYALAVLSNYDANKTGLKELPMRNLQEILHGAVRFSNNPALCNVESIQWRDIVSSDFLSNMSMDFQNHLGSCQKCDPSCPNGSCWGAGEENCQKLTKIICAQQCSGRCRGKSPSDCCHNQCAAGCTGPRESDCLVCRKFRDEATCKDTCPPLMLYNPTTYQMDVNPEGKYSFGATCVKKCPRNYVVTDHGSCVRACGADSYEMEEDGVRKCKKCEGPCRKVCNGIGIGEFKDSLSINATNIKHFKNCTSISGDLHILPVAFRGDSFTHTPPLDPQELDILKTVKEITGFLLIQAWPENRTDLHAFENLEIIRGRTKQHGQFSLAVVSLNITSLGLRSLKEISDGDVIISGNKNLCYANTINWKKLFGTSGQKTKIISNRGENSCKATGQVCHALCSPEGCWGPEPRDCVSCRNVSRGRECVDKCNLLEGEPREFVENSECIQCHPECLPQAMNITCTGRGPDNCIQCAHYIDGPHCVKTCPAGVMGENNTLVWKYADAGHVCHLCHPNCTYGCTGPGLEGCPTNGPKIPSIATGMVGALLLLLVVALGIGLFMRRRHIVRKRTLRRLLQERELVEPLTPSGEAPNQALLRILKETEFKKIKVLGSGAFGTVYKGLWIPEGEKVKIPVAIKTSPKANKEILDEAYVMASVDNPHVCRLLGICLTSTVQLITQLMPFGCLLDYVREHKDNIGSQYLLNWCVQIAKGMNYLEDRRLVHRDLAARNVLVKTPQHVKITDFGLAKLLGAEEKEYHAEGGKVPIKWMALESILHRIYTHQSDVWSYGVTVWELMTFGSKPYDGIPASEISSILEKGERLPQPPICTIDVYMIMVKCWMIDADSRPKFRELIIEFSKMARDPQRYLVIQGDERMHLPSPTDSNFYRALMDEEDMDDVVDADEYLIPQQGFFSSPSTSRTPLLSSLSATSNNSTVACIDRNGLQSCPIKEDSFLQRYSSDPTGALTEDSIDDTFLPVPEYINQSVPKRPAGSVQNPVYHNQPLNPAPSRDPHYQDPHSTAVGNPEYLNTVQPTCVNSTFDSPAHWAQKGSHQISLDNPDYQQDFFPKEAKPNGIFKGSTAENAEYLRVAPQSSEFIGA
Chain of Wild type EGFR in A431 cells (P00533 25-1210): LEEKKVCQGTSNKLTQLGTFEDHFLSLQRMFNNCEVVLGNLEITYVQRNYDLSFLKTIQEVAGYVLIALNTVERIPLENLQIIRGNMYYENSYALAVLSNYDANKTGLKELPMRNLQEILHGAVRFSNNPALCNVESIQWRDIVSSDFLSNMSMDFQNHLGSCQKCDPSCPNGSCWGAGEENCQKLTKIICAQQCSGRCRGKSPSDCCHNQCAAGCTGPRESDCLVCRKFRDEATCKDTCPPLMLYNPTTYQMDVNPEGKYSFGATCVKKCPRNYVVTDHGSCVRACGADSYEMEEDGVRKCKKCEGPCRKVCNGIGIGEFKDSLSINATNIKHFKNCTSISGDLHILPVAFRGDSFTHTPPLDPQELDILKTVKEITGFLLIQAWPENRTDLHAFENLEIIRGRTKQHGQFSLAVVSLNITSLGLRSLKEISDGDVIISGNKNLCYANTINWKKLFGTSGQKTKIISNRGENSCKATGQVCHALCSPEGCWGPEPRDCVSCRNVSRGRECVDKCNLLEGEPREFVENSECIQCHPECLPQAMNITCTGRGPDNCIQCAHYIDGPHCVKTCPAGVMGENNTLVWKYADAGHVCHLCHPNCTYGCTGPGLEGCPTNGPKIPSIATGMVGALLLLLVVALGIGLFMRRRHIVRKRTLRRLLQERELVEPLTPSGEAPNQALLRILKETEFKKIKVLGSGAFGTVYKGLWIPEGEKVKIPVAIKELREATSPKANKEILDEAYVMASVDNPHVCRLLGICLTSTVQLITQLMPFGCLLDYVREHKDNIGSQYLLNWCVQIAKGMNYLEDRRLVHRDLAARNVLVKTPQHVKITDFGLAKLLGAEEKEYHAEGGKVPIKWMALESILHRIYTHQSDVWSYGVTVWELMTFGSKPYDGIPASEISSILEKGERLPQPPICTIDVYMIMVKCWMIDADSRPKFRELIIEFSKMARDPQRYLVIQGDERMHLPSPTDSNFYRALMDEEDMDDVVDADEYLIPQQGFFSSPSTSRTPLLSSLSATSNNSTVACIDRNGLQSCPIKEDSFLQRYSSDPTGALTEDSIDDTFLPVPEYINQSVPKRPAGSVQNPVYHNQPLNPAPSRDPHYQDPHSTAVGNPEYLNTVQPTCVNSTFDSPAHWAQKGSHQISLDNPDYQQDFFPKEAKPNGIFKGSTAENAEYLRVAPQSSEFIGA
Procedure for IGF-1R: Test compound was dissolved in DMSO at 30 mM. […] 20 nL of these compounds DMSO dilutes were dispensed into a new 384-well assay plate by Echo 550. […] 15 μL of kinase assay buffer containing IGF-1R protein and substrate was transferred to assay plate and incubate at RT for 30 minutes. Kinase assay buffer supplemented with substrate peptides was employed as low control to monitor the background. 40 μM ATP was prepared in kinase assay buffer containing and 5 μL of ATP solution was added to each well to start the reaction. The assay plate was incubated at 25° C. for 180 minutes and the reaction was stopped by adding 40 μL of 0.5 M EDTA.
Phosphorylated fluorescent-tagged peptides were differentiated from non-phosphorylated peptides by separating using Caliper EZ Reader II and the detection was directly converted to conversion ratio.
Procedure for INSR: Test compound was dissolved in DMSO at 30 mM. […] 20 nL of these compounds DMSO dilutes were dispensed into a new 384-well assay plate by Echo 550. […] 15 μL of kinase assay buffer containing INSR protein and substrate was transferred to assay plate and incubate at RT for 30 minutes. Kinase assay buffer supplemented with substrate peptides was employed as low control to monitor the background. 40 μM ATP was prepared in kinase assay buffer containing and 5 μL of ATP solution was added to each well to start the reaction. The assay plate was incubated at 25° C. for 180 minutes and the reaction was stopped by adding 40 μL of 0.5 M EDTA.
The result was analyzed in the same manner as IGF-IR.

Take `C=CC(=O)Nc1cc(Nc2nccc(-c3cc(C#N)cc4c3cnn4C)n2)c(OC)cc1N(C)CCN(C)C` [Example 9, N-(5-((4-(6-Cyano-1-methyl-1H-indazol-4-yl)pyrimidin-2-yl)amino)-2-((2-(dimethylamino)ethyl)(methyl)amino)-4-methoxyphenyl)acrylamide]: the negative-log IC50 (pIC50) was 8.24 in series [1], 6.00 in [3] and 7.96 in series [5]. The AUC came to 719 ng·h/mL in “Mouse in vivo PK study [2]” and 249 ng·h/mL in the series “Mouse in vivo PK study [6]” (mouse, plasma). In addition, the peak concentration (Cmax) in the series “Mouse in vivo PK study [2]” worked out at 159 ng/mL. Also, the half-life in the series “Mouse in vivo PK study [2]” (read-out: T1/2 (PO) (converted)) was 3.55 h; in “Mouse in vivo PK study [6]” (mouse, plasma, read-out: T1/2 (IV) (converted)) it was 0.53 h. Moreover, the IC50 in [4] is 140 nM; with A431 cells (setting [8]) it was 2200 nM; in the series with H1975 cells (setting [9]), 3.05 nM; with PC-9 cells (setting [10]) it was 7.67 nM. Moreover, the F in the series “Mouse in vivo PK study [6]” (10 mg/kg PO) worked out at 23.1%. Besides, the clearance in “Mouse in vivo PK study [6]” (mouse, plasma) is 67 mL/min/kg.

In the case of `C=CC(=O)Nc1cc(Nc2nccc(-c3cc(C#N)c4ccn(C)c4c3)n2)c(OC)cc1N(C)CCN(C)C` [Example 7, N-(5-((4-(4-Cyano-1-methyl-1H-indol-6-yl)pyrimidin-2-yl)amino)-2-((2-(dimethylamino)ethyl)(methyl)amino)-4-methoxyphenyl)acrylamide], the negative logarithm of the IC50 (pIC50) in series [1] was 8.08; in series [3] it was 5.96; in series [5] it was 7.48. In addition, the IC50 in series [4] amounted to 302 nM; in the series on A431 cells (setting [8]), 2170 nM; at IGF-1R it was 390 nM; with H1975 cells (setting [9]) it was 4.76 nM; on INSR, 621 nM; in the series with PC-9 cells (setting [10]) it was 7.38 nM.

Regarding `C=CC(=O)Nc1cc(Nc2nccc(-n3nc(N(C)C)c4ccsc43)n2)c(OC)cc1N(C)CCN(C)C` [Example 5, N-(5-((4-(3-(Dimethylamino)-1H-thieno[2,3-c]pyrazol-1-yl)pyrimidin-2-yl)amino)-2-((2-(dimethylamino)ethyl)(methyl)amino)-4-methoxyphenyl) acrylamide], the pIC50 in series [1] was 8.19; in series [3] it was 5.46; in series [5], 7.77. Also, the IC50 was found to be 148 nM in series [4]; 1300 nM in the series on A431 cells (setting [8]); 2210 nM in the series on A431 cells (setting [11]); 1590 nM at IGF-1R; 5.86 nM with H1975 cells (setting [9]); 3.58 nM with H1975 cells (setting [12]). For the same compound, the IC50 amounted to 2140 nM on INSR, 4.86 nM in the series on PC-9 cells (setting [10]) and 2.9 nM in the series with PC-9 cells (read-out: PC9 IC50 (nM) SM).

As to `C=CC(=O)Nc1cc(Nc2nccc(-c3cn(C)c4ccccc34)n2)c(OC)cc1N(C)CCN(C)C` [AZD9291, reference compound], the “TGI (tumor growth inhibition)” value in [7] is 107.63%. Besides, the “Tumor Size” value in series [7] (average ± SEM, n = 9) stood at 123 ± 39 mm^3. In addition, the IC50 in the series with A431 cells (read-out: A431 IC50 (nM) WT, cellular proliferation, wild type EGFR) is […]; at IGF-1R it was 455 nM; in the series with H1975 cells (setting [9]), 7.16 nM; with H1975 cells (NCI-H1975 cells, listed as AZD-9291, read-out: NCI-H1975 IC50 (nM) DM) it was […]; with H1975 cells (setting [12]) it was […]; on INSR, […]. The IC50 in the series on PC-9 cells (read-out: PC9 IC50 (nM) SM) came out at 7.43 nM.

With `C=CC(=O)Nc1cc(Nc2nccc(-n3nc(NCC)c4ncccc43)n2)c(OCC(F)F)cc1N(C)CCN(C)C` [Example 22, N-(4-(2,2-Difluoroethoxy)-2-((2-(dimethylamino)ethyl)(methyl)amino)-5-((4-(3-(ethylamino)-1H-pyrazolo[4,3-b]pyridin-1-yl)pyrimidin-2-yl)amino)phenyl)acrylamide], the pIC50 in series [1] is 8.34; in series [5], 8.24. Besides, the IC50 in series [4] was 35 nM; with A431 cells (setting [8]) it was 675 nM; at IGF-1R, 5650 nM; in the series with H1975 cells (setting [9]), 3.57 nM; at INSR, 2530 nM; in the series on PC-9 cells (setting [10]), 1.79 nM.

On to `C=CC(=O)Nc1cc(Nc2nccc(-c3c[nH]c4ccccc34)n2)c(OC)cc1N(C)CCN(C)C` [AZD5104, reference compound], for which the IC50 is 95.2 nM in the series on A431 cells (setting [11]); 102 nM at IGF-1R; 3.9 nM with H1975 cells (NCI-H1975 cells, listed as AZD-5104, read-out: NCI-H1975 IC50 (nM) DM); 2.95 nM and 3.06 nM and 4.05 nM in the series on H1975 cells (setting [12]); 94.8 nM on INSR; 1.57 nM in the series on PC-9 cells (listed as AZD-5104, read-out: PC9 IC50 (nM) SM). The IC50 in the series on PC-9 cells (read-out: PC9 IC50 (nM) SM) is 1.34 nM and 2.27 nM and 1.92 nM. The pIC50 in [5] was 8.39 and 8.33 and 8.25 and 8.23.
